Assay results: PMC12133982, “Predominant T-cell epitopes of SARS-CoV-2 restricted by multiple prevalent HLA-B and HLA-C allotypes in Northeast Asia” (Frontiers in Immunology, 2025)
Peptide text beside a SMILES is read from it.

Experiments:
[1] = target: HLA-B3501 (Homo sapiens, UniProt P01889, A329T/A93T/A95T/C349S/D201E/D98Y/E176V/E187L/E204Q/E69T/I218V/K202T/L119I/Q94N/R155S/R180L/S121R/S35A/S48A/T118I/V127L/V306I/V36M/Y140S/Y91F); test: Competitive peptide binding assay, CIR-B3501; details: HMy2.CIR-B3501 cells, reference Cy5-[…], class from inhibition at 5 and 15 μM, flow cytometry MFI; read-out: Binding affinity with HLA-B3501
Description: (§1) Then, competitive peptide binding assays were performed.

[2] = target: HLA-B1501 (Homo sapiens, UniProt P01889, A329T/A93T/A95T/C349S/D201E/D98Y/E187L/E204Q/E69M/E70A/K202T/N87E/Q94N/R155S/R180W/S121R/S35A/S48A/V306I/V36M/Y140S/Y91S); test: Competitive peptide binding assay, CIR-B1501; details: HMy2.CIR-B1501 cells, reference Cy5-[…], class from inhibition at 5 and 15 μM, flow cytometry MFI; read-out: Binding affinity with HLA-B1501
Description: as §1

[3] = target: HLA-B1301 (Homo sapiens, UniProt P01889, A65T/A93T/A95T/D138N/D201E/D98Y/E176V/E204Q/E69M/E70A/G107R/K202T/L105A/L119I/N104T/N87E/Q94N/R106L/R155S/R169L/R180L/S101N/S121R/S35A/S48T/T118I/V127L/V36M/Y140L/Y91S); test: Competitive peptide binding assay, CIR-B1301; details: HMy2.CIR-B1301 cells, reference Cy5-[…], class from inhibition at 5 and 15 μM, flow cytometry MFI; read-out: Binding affinity with HLA-B1301
Description: as §1

[4] = target: HLA-B1502 (Homo sapiens, UniProt P01889, A329T/A93T/A95T/C349S/D201E/D98Y/E187L/E204Q/E69M/E70A/H137Y/K202T/L119I/Q94N/R155S/R180L/S121R/S35A/S48A/T118I/V306I/V36M/Y140S/Y91S); test: Competitive peptide binding assay, CIR-B1502; details: HMy2.CIR-B1502 cells, reference Cy5-[…], class from inhibition at 5 and 15 μM, flow cytometry MFI; read-out: Binding affinity with HLA-B1502
Description: as §1

[5] = target: HLA-B5801 (Homo sapiens, UniProt P01889, A329T/C349S/D201E/D98Y/E176V/E187L/E204Q/E69T/G107R/I218V/I90N/K202T/L105A/L119I/N104I/N87E/Q89R/Q94S/R106L/R155S/R180L/R86G/S101N/S121R/S35A/S48A/T118I/V127L/V306I/V36M/Y140S/Y91M); test: Competitive peptide binding assay, CIR-B5801; details: HMy2.CIR-B5801 cells, reference Cy5-[…], class from inhibition at 5 and 15 μM, flow cytometry MFI; read-out: Binding affinity with HLA-B5801
Description: as §1

[6] = target: HLA-B5101 (Homo sapiens, UniProt P01889, A329T/A93T/A95T/C349S/D138N/D201E/D98Y/E187L/E204Q/E69T/G107R/I218V/K202T/L105A/L119W/N104I/Q94N/R106L/R155S/R180L/S101N/S121T/S35A/S48A/V306I/V36M/Y195H/Y91F); test: Competitive peptide binding assay, CIR-B5101; details: HMy2.CIR-B5101 cells, reference Cy5-[…], class from inhibition at 5 and 15 μM, flow cytometry MFI; read-out: Binding affinity with HLA-B5101
Description: as §1

[7] = target: HLA-B4601 (Homo sapiens, UniProt P01889, A329T/A93R/C349S/D201E/E100V/E187L/E204Q/E69M/E70A/I90K/K202T/N87E/R155S/R180W/S121R/S35A/S48A/V306I/V36M/Y140S); test: Competitive peptide binding assay, CIR-B4601; details: for IC50: HMy2.CIR-B4601 cells, reference Cy5-[…], class from inhibition at 5 and 15 μM, flow cytometry MFI, read-out: Binding affinity with HLA-B4601; for inhibition at 5 µM: read-out: Inhibition % of Cy5-reference peptide binding, CIR-B4601, 5μM peptide; for inhibition at 15 µM: read-out: Inhibition % of Cy5-reference peptide binding, CIR-B4601, 15μM peptide
Description: as §1

[8] = target: HLA-B4403 (Homo sapiens, UniProt P01889, A223V/A65T/A93T/A95T/D201E/D98Y/E176V/E187L/E204Q/E69K/G107R/H137Y/K202T/L105A/L119I/N104T/N87E/Q56L/Q94N/R106L/R155S/R180L/S101N/S121R/S35A/S48T/T118I/V36M/W191S/Y140D/Y91S); test: Competitive peptide binding assay, CIR-B4403; details: HMy2.CIR-B4403 cells, reference Cy5-CYMEAVAL, class from inhibition at 5 and 15 μM, flow cytometry MFI; read-out: Binding affinity with HLA-B4403
Description: as §1

[9] = target: T1, HLA-B0702 (Homo sapiens, UniProt P01889); test: Competitive peptide binding assay, CIR-B0702; details: HMy2.CIR-B0702 cells, reference Cy5-[…], class from inhibition at 5 and 15 μM, flow cytometry MFI
T1 construct: expressed in transfected cells; host or cells: HMy2.CIR
Description: as §1

[10] = target: HLA-B1302 (Homo sapiens, UniProt P01889, A65T/A93T/A95T/D138N/D201E/D98Y/E176V/E204Q/E69M/E70A/G107R/K202T/L105A/L119W/N104T/N87E/Q94N/R106L/R155S/R169L/R180L/S101N/S121T/S35A/S48T/V127L/V36M/Y140L/Y91S); test: Competitive peptide binding assay, CIR-B1302; details: HMy2.CIR-B1302 cells, reference Cy5-MMWYWGPSL, class from inhibition at 5 and 15 μM, flow cytometry MFI; read-out: Binding affinity with HLA-B1302
Description: as §1

[11] = target: HLA-B4001 (Homo sapiens, UniProt P01889, A65T/A93T/A95T/D138N/D98Y/E176V/E69K/N87E/Q56L/Q94N/R180L/S121R/S35A/S48T/T167S/V36M/W171L/Y33H/Y91S); test: Competitive peptide binding assay, CIR-B4001; details: HMy2.CIR-B4001 cells, reference Cy5-[…], class from inhibition at 5 and 15 μM, flow cytometry MFI; read-out: Binding affinity with HLA-B4001
Description: as §1

[12] = target: HLA-B4801 (Homo sapiens, UniProt P01889, A269T/A93T/A95T/D138N/D98Y/E176V/N87E/Q94N/R180L/T167S/W171L/Y91S); test: Competitive peptide binding assay, CIR-B4801; details: HMy2.CIR-B4801 cells, reference Cy5-[…], class from inhibition at 5 and 15 μM, flow cytometry MFI; read-out: Binding affinity with HLA-B4801
Description: as §1

Row | SMILES | IC50 [1] [µM] | IC50 [2] [µM] | IC50 [3] [µM] | IC50 [4] [µM] | IC50 [5] [µM] | IC50 [6] [µM] | IC50 [7] [µM] | inhibition at 5 µM [7] [%] | inhibition at 15 µM [7] [%] | IC50 [8] [µM] | IC50 [9] [µM] | IC50 [10] [µM] | IC50 [11] [µM] | IC50 [12] [µM]
1 | CSCC[C@H](NC(=O)[C@H](CCSC)NC(=O)[C@H](CO)NC(=O)[C@H](Cc1ccccc1)NC(=O)[C@H](Cc1c[nH]cn1)NC(=O)[C@H](CCCCN)NC(=O)[C@H](CCCNC(=N)N)NC(=O)[C@H](CC(C)C)NC(=O)[C@@H](N)Cc1ccc(O)cc1)C(=O)O [Epitope Y28] (H-YLRKHFSMM-OH; N-terminus and C-terminus assumed) | 5 to 15 | < 5 | > 15 | > 15 | > 15 | > 15 | < 5 | 85.7 | 91.8 | – | – | – | – | –
2 | CC(C)C[C@H](NC(=O)[C@@H](NC(=O)[C@@H](NC(=O)CNC(=O)[C@H](CCC(N)=O)NC(=O)[C@@H]1CCCN1C(=O)[C@H](CC(C)C)NC(=O)[C@H](CCC(N)=O)NC(=O)[C@@H](N)CC(C)C)[C@@H](C)O)[C@@H](C)O)C(=O)O [Epitope Y61] (H-LQLPQGTTL-OH; N-terminus and C-terminus assumed) | < 5 | – | – | – | 5 to 15 | 5 to 15 | > 15 | 20 | 33.6 | – | – | – | – | –
3 | CC(C)[C@H](NC(=O)[C@H](CC(N)=O)NC(=O)[C@H](Cc1ccc(O)cc1)NC(=O)[C@H](C)NC(=O)[C@@H](N)CCCCN)C(=O)N[C@H](C(=O)N[C@@H](CCC(N)=O)C(=O)N[C@@H](C)C(=O)N[C@@H](Cc1ccccc1)C(=O)O)[C@@H](C)O [Epitope Y62] (H-KAYNVTQAF-OH) | < 5 | 5 to 15 | – | – | 5 to 15 | – | 5 to 15 | – | – | 5 to 15 | > 15 | > 15 | > 15 | –
4 | CC[C@H](C)[C@H](NC(=O)[C@@H](NC(=O)[C@H](CC(N)=O)NC(=O)[C@H](CCCNC(=N)N)NC(=O)[C@H](CCCCN)NC(=O)[C@@H](NC(=O)[C@H](Cc1ccc(O)cc1)NC(=O)[C@H](C)NC(=O)[C@@H](N)Cc1ccccc1)[C@@H](C)O)C(C)C)C(=O)O [Epitope Y276] (H-FAYTKRNVI-OH; N-terminus and C-terminus assumed) | > 15 | > 15 | < 5 | > 15 | – | 5 to 15 | – | – | – | – | – | – | – | –
5 | CSCC[C@H](NC(=O)[C@H](CCCCN)NC(=O)CN)C(=O)N[C@@H](CCCCN)C(=O)N[C@@H](CC(=O)O)C(=O)N[C@@H](CC(C)C)C(=O)N[C@@H](CO)C(=O)N1CCC[C@H]1C(=O)N[C@@H](CCCNC(=N)N)C(=O)N[C@@H](Cc1c[nH]c2ccccc12)C(=O)O [Epitope Y224] (H-GKMKDLSPRW-OH; N-terminus and C-terminus assumed) | > 15 | > 15 | > 15 | – | – | – | > 15 | 32.3 | 52.3 | – | – | – | – | 5 to 15
